Test results: patent publication US10941136B2, “Quinazoline derivative or its salt and pharmaceutical composition comprising the same” (YUHAN CORPORATION, priority 2016, dated 2021)

How the values were obtained:
Format in all cases: biochemical
[1] = target: T1, PI3Kγ (p120γ)(h) (Homo sapiens, UniProt P48736); test: PI3K-HTRF in vitro enzyme assay, PI3Kγ; details: enzyme 0.4 μg/ml
T1 construct: purchased Upstate (Millipore Co) #14-558
Experimental: (§1) The compounds of the present invention were tested for the activity of phosphatidylinositol 3-kinase delta (PI3K) by using a PI3K enzyme-homogeneous time resolved fluorescence (PI3K-HTRF) kit, which is available under Upstate™ kit (Millipore Co, Billerica, Mass., USA). This kit system measures indirectly the amount of PIP3 produced via PI3K by detecting competitive inhibition of fluorescence complex formation.
(§2) There were used three kinds of buffer solutions, i.e., reaction buffer, stop solution, and detection solution. The reaction buffer was prepared by diluting Reaction Buffer (provided in Update™ kit) with distilled water 4 times and adding DTT to a concentration of 5 mM. The stop solution was prepared by combining STOP A and B Solutions (provided in Update™ kit) in a ratio of 3:1. The detection solution was prepared by combining Detection Solution A, B and C (provided in Update™ kit) in a ratio of 1:1:18. A substrate solution and an ATP solution were prepared by diluting the 1 mM PIP2 (phosphatidyl inositol 4,5 bi-phosphate) stock solution (provided in Update™ kit) and 10 mM ATP (Sigma-aldrich Co., St. Louis, Mo., USA) stock solution with the reaction buffer to concentrations of 20 μM and 40 μM, respectively. An enzyme solution was prepared by diluting PI3Kδ (#14˜604; Upstate™ kit) with the substrate solution to the concentration of 0.2 μg/ml (final reaction concentration: 0.1 μg/ml).
(§3) The test groups were prepared by dissolving each compound in 100% DMSO at 40× the final concentration and then diluting 10-fold with the reaction buffer. 5 μl of each diluted test group solution was transferred to a 384 well low flange white flat bottom microplate (#3572, Corning Life Sciences, Lowell, Mass., USA). We performed centrifuge (1 minute, 1000 rpm) and shaking for 2 minutes after every solution-adding step in this experiment. Next, 10 μl of the enzyme solution was added to each well. A mixed solution of the substrate solution (10 μl) plus 5 μl of the 100% DMSO diluted solution without test compound (i.e., 10% DMSO solution) was used as a negative control. And also, a mixed solution of enzyme solution (10 μl) plus 5 μl of the 100% DMSO diluted solution without test compound (i.e., 10% DMSO solution) was used as a positive control. This plate was pre-incubated for 10 minutes in a 25° C. incubator. After the pre-incubation, the phosphorylation reaction was induced by adding 5 μl of the ATP solution and the plate was incubated for 30 minutes in a 25° C. incubator. This enzyme reaction was stopped by 5 μl of the stop solution and then 5 μl of the detection solution was added thereto. To obtain enough fluorescence responses, the plate was incubated for 2 hours in a 25° C. incubator protected from light.
(§4) The time-resolved fluorescence resonance energy transfer (TR-FRET) rate was measured (emission wavelength: 665 nm, 620 nm, excitation wavelength: 313 nm) by using a Flexstation3 Micro plate reader (Molecular Devices, USA). TR-FRET Rate was calculated based on the Equation 1 and using these TR-FRET Rates, % inhibition rate of each compound was calculated based on the Equation 2. The IC50 values, i.e., the concentration of a test compound that inhibits 50% of PI3Kδ activity in vitro, are generated by Softmax program (Molecular Devices, USA). TR-FRET Rate=(Signal at 665 nm emission wavelength/Signal at 620 nm emission wavelength)×10000 <Equation 1> % Inhibition Rate=[(TR-FRET Rate of the test group−TR-FRET Rate of the positive control group)/(TR-FRET Rate of the negative control group−TR-FRET Rate of the positive control group)]×100 <Equation 2>
(§5) The compounds of the present invention were assayed for the activities of PI3K subtypes, i.e., PI3Kα, PI3Kβ and PI3Kγ, using the same procedures as in Experimental Example 1. […]

[2] = target: T2, PI3Kδ (p110δ/p85α)(h) (Homo sapiens, UniProt O00329); test: PI3K-HTRF in vitro enzyme assay, PI3Kδ; details: enzyme 0.1 μg/ml
T2 construct: purchased Upstate (Millipore Co, Billerica, Mass., USA) #14˜604
T2 sequence (O00329 whole entry): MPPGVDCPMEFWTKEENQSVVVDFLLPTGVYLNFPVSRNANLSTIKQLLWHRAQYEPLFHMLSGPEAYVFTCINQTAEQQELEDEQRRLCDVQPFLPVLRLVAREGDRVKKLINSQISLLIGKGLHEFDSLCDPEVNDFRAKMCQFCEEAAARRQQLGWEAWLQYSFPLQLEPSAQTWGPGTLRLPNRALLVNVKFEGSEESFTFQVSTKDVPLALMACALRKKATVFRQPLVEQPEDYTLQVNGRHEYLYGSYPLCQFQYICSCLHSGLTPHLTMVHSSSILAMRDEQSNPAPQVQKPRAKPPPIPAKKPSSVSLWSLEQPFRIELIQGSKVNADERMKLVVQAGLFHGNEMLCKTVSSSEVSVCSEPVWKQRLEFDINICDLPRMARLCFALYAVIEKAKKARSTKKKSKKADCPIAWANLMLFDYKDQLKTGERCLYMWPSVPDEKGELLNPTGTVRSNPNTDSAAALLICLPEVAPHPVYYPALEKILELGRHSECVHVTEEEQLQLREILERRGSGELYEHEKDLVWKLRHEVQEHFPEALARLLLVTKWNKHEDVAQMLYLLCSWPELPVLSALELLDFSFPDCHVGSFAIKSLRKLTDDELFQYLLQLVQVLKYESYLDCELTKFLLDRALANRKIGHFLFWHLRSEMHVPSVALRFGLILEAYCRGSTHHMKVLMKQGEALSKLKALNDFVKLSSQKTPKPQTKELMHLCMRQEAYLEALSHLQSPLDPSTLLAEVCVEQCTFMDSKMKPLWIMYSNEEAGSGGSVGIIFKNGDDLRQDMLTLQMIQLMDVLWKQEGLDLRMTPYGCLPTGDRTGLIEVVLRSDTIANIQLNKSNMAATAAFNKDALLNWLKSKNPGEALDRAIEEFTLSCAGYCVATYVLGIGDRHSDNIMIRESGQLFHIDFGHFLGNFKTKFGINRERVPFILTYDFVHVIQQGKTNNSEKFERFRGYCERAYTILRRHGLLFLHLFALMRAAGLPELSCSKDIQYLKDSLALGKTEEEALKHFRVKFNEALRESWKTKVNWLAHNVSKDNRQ
T2 sequence (P27986 whole entry partner): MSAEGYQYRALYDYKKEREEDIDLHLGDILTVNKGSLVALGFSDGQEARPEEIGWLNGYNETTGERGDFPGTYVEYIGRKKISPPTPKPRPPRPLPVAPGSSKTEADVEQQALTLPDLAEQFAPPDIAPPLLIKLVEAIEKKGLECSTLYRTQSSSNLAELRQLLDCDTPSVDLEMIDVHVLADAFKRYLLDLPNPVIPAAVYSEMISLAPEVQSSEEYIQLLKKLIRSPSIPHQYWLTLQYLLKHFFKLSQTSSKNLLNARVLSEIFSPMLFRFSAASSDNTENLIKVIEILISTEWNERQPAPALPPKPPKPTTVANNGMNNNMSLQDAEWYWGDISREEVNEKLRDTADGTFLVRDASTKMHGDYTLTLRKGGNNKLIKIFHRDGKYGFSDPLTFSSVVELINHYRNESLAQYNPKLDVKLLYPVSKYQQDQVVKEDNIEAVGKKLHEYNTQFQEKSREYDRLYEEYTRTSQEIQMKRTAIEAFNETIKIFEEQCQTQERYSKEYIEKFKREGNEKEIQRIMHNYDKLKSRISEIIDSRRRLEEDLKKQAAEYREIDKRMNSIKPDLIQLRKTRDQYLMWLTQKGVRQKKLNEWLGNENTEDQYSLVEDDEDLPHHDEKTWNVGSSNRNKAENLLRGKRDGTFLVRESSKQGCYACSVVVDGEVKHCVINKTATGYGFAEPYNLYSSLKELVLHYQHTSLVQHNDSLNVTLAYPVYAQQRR
Experimental: as §1, §2, §3, §4

[3] = target: T3, PI3Kα (p110α/p85α)(h) (Homo sapiens, UniProt P42336); test: PI3K-HTRF in vitro enzyme assay, PI3Kα; details: enzyme 0.1 μg/ml
T3 construct: purchased Upstate (Millipore Co) #14-602
T3 sequence (P42336 whole entry): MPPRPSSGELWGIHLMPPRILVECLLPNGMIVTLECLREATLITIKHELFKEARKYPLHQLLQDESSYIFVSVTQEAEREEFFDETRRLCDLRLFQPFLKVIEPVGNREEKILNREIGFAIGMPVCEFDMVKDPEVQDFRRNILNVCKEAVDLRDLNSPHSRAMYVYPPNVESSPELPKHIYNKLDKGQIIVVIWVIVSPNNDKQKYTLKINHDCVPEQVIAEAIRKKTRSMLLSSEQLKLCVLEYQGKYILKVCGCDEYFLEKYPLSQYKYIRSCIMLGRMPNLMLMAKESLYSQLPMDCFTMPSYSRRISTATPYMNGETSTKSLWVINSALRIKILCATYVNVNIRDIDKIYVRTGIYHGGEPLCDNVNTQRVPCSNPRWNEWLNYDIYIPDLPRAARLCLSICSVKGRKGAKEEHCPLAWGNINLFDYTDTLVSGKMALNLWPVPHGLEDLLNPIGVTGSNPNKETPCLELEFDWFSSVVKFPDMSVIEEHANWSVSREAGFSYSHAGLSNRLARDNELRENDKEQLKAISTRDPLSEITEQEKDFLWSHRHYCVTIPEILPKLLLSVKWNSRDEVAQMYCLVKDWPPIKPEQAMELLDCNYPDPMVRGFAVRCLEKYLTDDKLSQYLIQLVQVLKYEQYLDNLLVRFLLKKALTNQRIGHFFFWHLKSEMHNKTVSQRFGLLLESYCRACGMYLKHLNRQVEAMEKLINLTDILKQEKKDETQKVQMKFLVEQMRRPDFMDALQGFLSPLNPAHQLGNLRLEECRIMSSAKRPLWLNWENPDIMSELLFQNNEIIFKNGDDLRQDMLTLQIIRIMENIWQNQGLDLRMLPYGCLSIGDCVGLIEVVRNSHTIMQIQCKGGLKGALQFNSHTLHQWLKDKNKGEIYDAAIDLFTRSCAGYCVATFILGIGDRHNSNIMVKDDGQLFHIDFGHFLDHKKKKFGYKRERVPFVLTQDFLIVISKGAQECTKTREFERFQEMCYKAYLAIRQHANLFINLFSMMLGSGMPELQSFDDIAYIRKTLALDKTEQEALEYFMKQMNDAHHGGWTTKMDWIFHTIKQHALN
T3 sequence (P27986 whole entry partner): as the sequence (P27986 whole entry partner) above
Experimental: as §1, §2, §3, §4, §5

T1 sequence (P48736 whole entry): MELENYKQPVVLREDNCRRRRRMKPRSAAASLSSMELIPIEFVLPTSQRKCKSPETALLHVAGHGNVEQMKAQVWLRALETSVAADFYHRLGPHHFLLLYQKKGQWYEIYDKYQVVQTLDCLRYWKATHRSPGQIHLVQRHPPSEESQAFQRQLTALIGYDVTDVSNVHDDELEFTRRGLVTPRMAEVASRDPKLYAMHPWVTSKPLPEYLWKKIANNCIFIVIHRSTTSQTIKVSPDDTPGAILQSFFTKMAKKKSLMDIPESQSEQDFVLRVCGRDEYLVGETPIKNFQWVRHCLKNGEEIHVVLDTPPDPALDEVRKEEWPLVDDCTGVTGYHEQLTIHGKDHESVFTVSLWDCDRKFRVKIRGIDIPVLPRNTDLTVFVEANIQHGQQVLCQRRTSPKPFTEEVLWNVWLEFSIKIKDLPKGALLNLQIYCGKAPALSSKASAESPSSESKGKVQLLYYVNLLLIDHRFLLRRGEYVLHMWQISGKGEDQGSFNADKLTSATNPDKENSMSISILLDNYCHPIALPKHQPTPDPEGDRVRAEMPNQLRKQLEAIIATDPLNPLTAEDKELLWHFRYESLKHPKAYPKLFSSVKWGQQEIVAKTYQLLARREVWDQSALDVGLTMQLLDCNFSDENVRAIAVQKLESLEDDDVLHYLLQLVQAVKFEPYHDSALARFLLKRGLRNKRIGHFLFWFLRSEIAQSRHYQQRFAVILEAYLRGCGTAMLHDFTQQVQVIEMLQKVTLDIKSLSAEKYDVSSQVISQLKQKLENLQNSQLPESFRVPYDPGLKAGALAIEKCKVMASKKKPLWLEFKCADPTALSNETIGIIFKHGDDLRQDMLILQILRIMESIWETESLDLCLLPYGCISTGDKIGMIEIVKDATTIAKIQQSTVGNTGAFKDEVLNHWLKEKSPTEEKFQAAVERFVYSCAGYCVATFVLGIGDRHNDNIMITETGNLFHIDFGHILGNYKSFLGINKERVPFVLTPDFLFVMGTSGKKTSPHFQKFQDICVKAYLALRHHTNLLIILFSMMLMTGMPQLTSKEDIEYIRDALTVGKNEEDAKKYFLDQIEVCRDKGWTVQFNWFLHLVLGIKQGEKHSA

| SMILES | IC50 [1] [nM] | IC50 [2] [nM] | IC50 [3] [nM] |
| --- | --- | --- | --- |
| C[C@H](Nc1ncnc2ccc(C#N)cc12)c1nc2cccc(-c3cncnc3)c2c(=O)n1-c1ccccc1 [Example 1, (S)-4-((1-(4-oxo-3-phenyl-5-(pyrimidin-5-yl)-3,4-dihydroquinazolin-2-yl)ethyl)amino)quinazoline-6-carbonitrile] | 922 | 20 | 3550 |
| CC[C@H](Nc1ncnc2ccc(C#N)cc12)c1nc2cccc(-c3cnc(OC)nc3)c2c(=O)n1-c1ccccc1 [Example 5, (S)-4-((1-(5-(2-methoxypyrimidin-5-yl)-4-oxo-3-phenyl-3,4-dihydroquinazolin-2-yl)propyl)amino)quinazoline-6-carbonitrile] | 2150 | 14 | 1010 |
| CC(C)[C@H](Nc1ncnc2ccc(C#N)cc12)c1nc2cccc(-c3cnc(N)nc3)c2c(=O)n1-c1ccccc1 [Example 13, (S)-4-((1-(5-(2-aminopyrimidin-5-yl)-4-oxo-3-phenyl-3,4-dihydroquinazolin-2-yl)-2-methylpropyl)amino)quinazoline-6-carbonitrile] | 2890 | 24 | 1480 |
| CCOc1ncc(-c2cccc3nc([C@@H](Nc4ncnc5ccc(C#N)cc45)C4CC4)n(-c4ccccc4)c(=O)c23)cn1 [Example 16, (S)-4-((cyclopropyl(5-(2-ethoxypyrimidin-5-yl)-4-oxo-3-phenyl-3,4-dihydroquinazolin-2-yl)methyl)amino)quinazoline-6-carbonitrile] | 434 | 4 | 1290 |
| CC[C@H](Nc1ncnc2cccc(F)c12)c1nc2cccc(-c3cncnc3)c2c(=O)n1-c1ccccc1 [Example 24, (S)-2-(1-((5-fluoroquinazolin-4-yl)amino)propyl)-3-phenyl-5-(pyrimidin-5-yl)quinazolin-4(3H)-one] | 4280 | 17 | 8120 |
| CC[C@H](Nc1ncnc2cccc(F)c12)c1nc2cccc(-c3cnc(F)nc3)c2c(=O)n1-c1ccccc1 [Example 26, (S)-5-(2-fluoropyrimidin-5-yl)-2-(1-((5-fluoroquinazolin-4-yl)amino)propyl)-3-phenylquinazolin-4(3H)-one] | 3420 | 17 | 4470 |
| CC[C@H](Nc1ncnc2cccc(F)c12)c1nc2cccc(-c3cnc(C)nc3)c2c(=O)n1-c1ccccc1 [Example 27, (S)-2-(1-((5-fluoroquinazolin-4-yl)amino)propyl)-5-(2-methylpyrimidin-5-yl)-3-phenylquinazolin-4(3H)-one] | 4980 | 27 | 7260 |
| CC(C)[C@H](Nc1ncnc2cccc(F)c12)c1cc2cccc(-c3cncnc3)c2c(=O)n1-c1ccccc1 [Example 45, (S)-3-(1-((5-fluoroquinazolin-4-yl)amino)-2-methylpropyl)-2-phenyl-8-(pyrimidin-5-yl)isoquinolin-1(2H)-one] | > 1000 | 17 | – |
| Cc1ncc(-c2cccc3cc([C@@H](Nc4ncnc5cccc(F)c45)C(C)C)n(-c4ccccc4)c(=O)c23)cn1 [Example 47, (S)-3-(1-((5-fluoroquinazolin-4-yl)amino)-2-methylpropyl)-8-(2-methylpyrimidin-5-yl)-2-phenylisoquinolin-1(2H)-one] | > 1000 | 23 | – |

More lines, now with the values ahead:

| IC50 [1] [nM] | IC50 [2] [nM] | IC50 [3] [nM] | SMILES |
| --- | --- | --- | --- |
| 262 | 22 | 1770 | Cc1ncc(-c2cccc3nc([C@H](C)Nc4ncnc5ccc(C#N)cc45)n(-c4ccccc4)c(=O)c23)cn1 [Example 3, (S)-4-((1-(5-(2-methylpyrimidin-5-yl)-4-oxo-3-phenyl-3,4-dihydroquinazolin-2-yl)ethyl)amino)quinazoline-6-carbonitrile] |
| 3630 | 14 | 2210 | CC[C@H](Nc1ncnc2ccc(C#N)cc12)c1nc2cccc(-c3cncnc3)c2c(=O)n1-c1ccccc1 [Example 4, (S)-4-((1-(4-oxo-3-phenyl-5-(pyrimidin-5-yl)-3,4-dihydroquinazolin-2-yl)propyl)amino)quinazoline-6-carbonitrile] |
| 1960 | 15 | 1510 | CCOc1ncc(-c2cccc3nc([C@H](CC)Nc4ncnc5ccc(C#N)cc45)n(-c4ccccc4)c(=O)c23)cn1 [Example 6, (S)-4-((1-(5-(2-ethoxypyrimidin-5-yl)-4-oxo-3-phenyl-3,4-dihydroquinazolin-2-yl)propyl)amino)quinazoline-6-carbonitrile] |
| 747 | 20 | 638 | CC[C@H](Nc1ncnc2ccc(C#N)cc12)c1nc2cccc(-c3cnc(N(C)C)nc3)c2c(=O)n1-c1ccccc1 [Example 7, (S)-4-((1-(5-(2-(dimethylamino)pyrimidin-5-yl)-4-oxo-3-phenyl-3,4-dihydroquinazolin-2-yl)propyl)amino)quinazoline-6-carbonitrile] |
| 1720 | 18 | 787 | CC[C@H](Nc1ncnc2ccc(C#N)cc12)c1nc2cccc(-c3cnc(SC)nc3)c2c(=O)n1-c1ccccc1 [Example 8, (S)-4-((1-(5-(2-(methylsulfanyl)pyrimidin-5-yl)-4-oxo-3-phenyl-3,4-dihydroquinazolin-2-yl)propyl)amino)quinazoline-6-carbonitrile] |
| 1150 | 18 | 2850 | CCC[C@H](Nc1ncnc2ccc(C#N)cc12)c1nc2cccc(-c3cnc(C)nc3)c2c(=O)n1-c1ccccc1 [Example 9, (S)-4-((1-(5-(2-methylpyrimidin-5-yl)-4-oxo-3-phenyl-3,4-dihydroquinazolin-2-yl)butyl)amino)quinazoline-6-carbonitrile] |
| 537 | 3 | 841 | N#Cc1ccc2ncnc(N[C@H](c3nc4cccc(-c5cncnc5)c4c(=O)n3-c3ccccc3)C3CC3)c2c1 [Example 14, (S)-4-((cyclopropyl(4-oxo-3-phenyl-5-(pyrimidin-5-yl)-3,4-dihydroquinazolin-2-yl)methyl)amino)quinazoline-6-carbonitrile] |
| 364 | 17 | 751 | COc1ncc(-c2cccc3nc([C@@H](Nc4ncnc5ccc(C#N)cc45)C4CC4)n(-c4ccccc4)c(=O)c23)cn1 [Example 15, (S)-4-((cyclopropyl(5-(2-methoxypyrimidin-5-yl)-4-oxo-3-phenyl-3,4-dihydroquinazolin-2-yl)methyl)amino)quinazoline-6-carbonitrile] |
| 5940 | 30 | – | C[C@H](Nc1ncnc2cccc(F)c12)c1nc2cccc(-c3cncnc3)c2c(=O)n1-c1ccccc1 [Example 22, (S)-2-(1-((5-fluoroquinazolin-4-yl)amino)ethyl)-3-phenyl-5-(pyrimidin-5-yl)quinazolin-4(3H)-one] |
| 1390 | 19 | 2730 | C[C@H](Nc1ncnc2cccc(F)c12)c1nc2cccc(-c3cnc(N)nc3)c2c(=O)n1-c1ccccc1 [Example 23, (S)-5-(2-aminopyrimidin-5-yl)-2-(1-((5-fluoroquinazolin-4-yl)amino)ethyl)-3-phenylquinazolin-4(3H)-one] |
| – | 19 | – | CC(C)[C@H](Nc1ncnc2cccc(F)c12)c1nc2cccc(-c3cncnc3)c2c(=O)n1-c1ccccc1 [Example 28, (S)-2-(1-((5-fluoroquinazolin-4-yl)amino)-2-methylpropyl)-3-phenyl-5-(pyrimidin-5-yl)quinazolin-4(3H)-one] |
